pIC50: −log10 of the molar value. Values joined by “and” are separate entries in the source; they are usually repeats but may differ in a detail not shown here. Equal entries are not always repeated.
What follows are molecules tested against Poly [ADP-ribose] polymerase 1 (Homo sapiens, UniProt P09874) (assay: Inhibitory concentration against purified poly ADP-ribose polymerase-1 done in PARP inhibition assay kit).
Poly [ADP-ribose] polymerase 1, sequence (P09874 whole entry): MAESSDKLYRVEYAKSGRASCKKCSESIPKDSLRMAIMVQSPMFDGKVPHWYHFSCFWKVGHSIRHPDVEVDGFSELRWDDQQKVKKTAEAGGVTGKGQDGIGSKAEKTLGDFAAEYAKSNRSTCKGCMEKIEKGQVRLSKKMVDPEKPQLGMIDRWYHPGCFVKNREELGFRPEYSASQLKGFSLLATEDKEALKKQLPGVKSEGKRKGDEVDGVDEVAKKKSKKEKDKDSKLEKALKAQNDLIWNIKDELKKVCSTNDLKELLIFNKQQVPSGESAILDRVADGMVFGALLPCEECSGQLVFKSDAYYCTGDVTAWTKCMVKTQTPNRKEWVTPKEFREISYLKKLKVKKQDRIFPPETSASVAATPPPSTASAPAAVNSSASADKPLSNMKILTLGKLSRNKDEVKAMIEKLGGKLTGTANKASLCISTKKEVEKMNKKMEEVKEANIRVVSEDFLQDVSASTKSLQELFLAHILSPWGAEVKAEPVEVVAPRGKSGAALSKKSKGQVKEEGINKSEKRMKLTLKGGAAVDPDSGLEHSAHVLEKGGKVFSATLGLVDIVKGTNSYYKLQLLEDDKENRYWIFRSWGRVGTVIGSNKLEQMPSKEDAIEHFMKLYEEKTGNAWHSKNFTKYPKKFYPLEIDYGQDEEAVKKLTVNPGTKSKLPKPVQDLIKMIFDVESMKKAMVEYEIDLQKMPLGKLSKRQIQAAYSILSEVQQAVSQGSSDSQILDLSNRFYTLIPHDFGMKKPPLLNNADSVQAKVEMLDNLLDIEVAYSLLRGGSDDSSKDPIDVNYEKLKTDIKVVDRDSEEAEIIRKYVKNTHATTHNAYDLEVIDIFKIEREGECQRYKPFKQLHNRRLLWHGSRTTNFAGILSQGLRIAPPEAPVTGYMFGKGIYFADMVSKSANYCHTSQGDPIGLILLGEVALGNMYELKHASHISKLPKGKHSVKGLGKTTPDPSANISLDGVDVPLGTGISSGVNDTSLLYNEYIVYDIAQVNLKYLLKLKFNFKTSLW

SMILES	pIC50
O=c1[nH]c2c(c3ccccc13)Cc1cc(S(=O)(=O)NCCCn3ccnc3)ccc1-2	6.40
Oc1nc2c(c3ccccc13)Cc1ccc(F)cc1-2	6.30
O=c1[nH]c2c(c3ccccc13)Cc1cc(S(=O)(=O)NCCCc3ccccc3)ccc1-2	< 5.52
O=[N+]([O-])c1ccc2c(c1)-c1nc(O)c3ccccc3c1C2	6.30
Nc1ccc2c(c1)Cc1c-2[nH]c(=O)c2ccccc12	7.01
CN1CCN(CC(=O)Nc2ccc3c(c2)-c2[nH]c(=O)c4ccccc4c2C3)CC1	< 5.52
O=S(=O)(NCCCNN1CCOCC1)c1cc2c(cc1F)-c1nc(O)c3ccccc3c1C2	6.35
O=c1[nH]c2c(c3ccccc13)Cc1cc(F)ccc1-2	6.19
Nc1ccc2c(c1)-c1[nH]c(=O)c3ccccc3c1C2	6.52
O=C(CN1CCOCC1)Nc1ccc2c(c1)-c1nc(O)c3ccccc3c1C2	< 5.52 and 6.40
O=S(=O)(O)c1ccc2c(c1)Cc1c-2nc(O)c2ccccc12	6.15
O=c1[nH]c2c(c3ccccc13)Cc1ccccc1-2	< 5.52
O=c1[nH]c2c(c3ccccc13)Cc1cc(S(=O)(=O)n3ccnc3)c(F)cc1-2	6.30
O=c1[nH]c2c(c3ccccc13)Cc1cc([N+](=O)[O-])ccc1-2	6.52
